Assay results taken from the supplement of paper PMC10307832.

Experiments:
Experiment in all cases: relative viability (nuclei count vs DMSO), 5 days (fraction); higher = more cells survive
Alisertib + Foretinib = compound: COc1cc(Nc2ncc3c(n2)-c2ccc(Cl)cc2C(c2c(F)cccc2OC)=NC3)ccc1C(=O)O [Alisertib] + COc1cc2c(Oc3ccc(NC(=O)C4(C(=O)Nc5ccc(F)cc5)CC4)cc3F)ccnc2cc1OCCCN1CCOCC1 [Foretinib] (partner 0.25 µM)
Procedure, shortened: (§1)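 The day after seeding in 1536-well plates, lung cancer cell lines were treated by pin tool with a single drug, or with a fixed anchor-drug dose together with five library-drug doses (not always all listed) in √10 steps. After 5 days, a combined fix-and-stain solution (final 0.05% Triton X-100, 1% formaldehyde, 1 ug/ml Hoechst) was added. Nuclei counted on 4× images gave relative viability as treated counts over vehicle counts, reported as the median of duplicate plates.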

Alisertib + Alpelisib = compound: COc1cc(Nc2ncc3c(n2)-c2ccc(Cl)cc2C(c2c(F)cccc2OC)=NC3)ccc1C(=O)O [Alisertib] + Cc1nc(NC(=O)N2CCC[C@H]2C(N)=O)sc1-c1ccnc(C(C)(C)C(F)(F)F)c1 [Alpelisib] (partner 2 µM)
Procedure, shortened: as §1

Alisertib + Pemetrexed = compound: COc1cc(Nc2ncc3c(n2)-c2ccc(Cl)cc2C(c2c(F)cccc2OC)=NC3)ccc1C(=O)O [Alisertib] + Nc1nc2[nH]cc(CCc3ccc(C(=O)N[C@@H](CCC(=O)O)C(=O)O)cc3)c2c(=O)[nH]1 [Pemetrexed] (partner 0.2 µM)
Procedure, shortened: as §1

Alisertib + Olaparib = compound: COc1cc(Nc2ncc3c(n2)-c2ccc(Cl)cc2C(c2c(F)cccc2OC)=NC3)ccc1C(=O)O [Alisertib] + O=C(c1cc(Cc2n[nH]c(=O)c3ccccc23)ccc1F)N1CCN(C(=O)C2CC2)CC1 [Olaparib] (partner 8 µM)
Procedure, shortened: as §1

Cell Line | relative viability (Alisertib + Foretinib; first compound 0.005 µM) | relative viability (Alisertib + Foretinib; first compound 0.01581 µM) | relative viability (Alisertib + Foretinib; first compound 0.05 µM) | relative viability (Alisertib + Foretinib; first compound 0.1581 µM) | relative viability (Alisertib + Foretinib; first compound 0.5 µM) | relative viability (Alisertib + Alpelisib; first compound 0.005 µM) | relative viability (Alisertib + Alpelisib; first compound 0.01581 µM) | relative viability (Alisertib + Alpelisib; first compound 0.05 µM) | relative viability (Alisertib + Alpelisib; first compound 0.1581 µM) | relative viability (Alisertib + Alpelisib; first compound 0.5 µM) | relative viability (Alisertib + Pemetrexed; first compound 0.005 µM) | relative viability (Alisertib + Pemetrexed; first compound 0.01581 µM) | relative viability (Alisertib + Pemetrexed; first compound 0.05 µM) | relative viability (Alisertib + Pemetrexed; first compound 0.1581 µM) | relative viability (Alisertib + Pemetrexed; first compound 0.5 µM) | relative viability (Alisertib + Olaparib; first compound 0.005 µM) | relative viability (Alisertib + Olaparib; first compound 0.01581 µM) | relative viability (Alisertib + Olaparib; first compound 0.05 µM) | relative viability (Alisertib + Olaparib; first compound 0.1581 µM) | relative viability (Alisertib + Olaparib; first compound 0.5 µM)
UMC-11 | 0.648 | 0.263 | 0.189 | 0.195 | 0.168 | 0.736 | 0.194 | 0.137 | 0.135 | 0.103 | 0.602 | 0.26 | 0.196 | 0.18 | 0.175 | 0.287 | 0.216 | 0.193 | 0.252 | 0.215
NCI-H1651 | 0.907 | 0.571 | 0.445 | 0.338 | 0.195 | 0.867 | 0.87 | 0.533 | 0.289 | 0.187 | 0.509 | 0.495 | 0.339 | 0.199 | 0.173 | 0.166 | 0.157 | 0.12 | 0.112 | 0.126
NCI-H2023 | 0.936 | 0.743 | 0.501 | 0.46 | 0.0916 | 0.571 | 0.412 | 0.456 | 0.351 | 0.117 | 0.192 | 0.222 | 0.177 | 0.152 | 0.101 | 0.448 | 0.456 | 0.27 | 0.134 | 0.101
COR-L 105 | 0.937 | 1.11 | 0.919 | 0.662 | 0.271 | 0.741 | 0.849 | 0.71 | 0.343 | 0.245 | 1.08 | 0.995 | 0.952 | 0.607 | 0.298 | 0.689 | 0.641 | 0.502 | 0.498 | 0.311
NCI-H1734 | 0.841 | 0.731 | 0.314 | 0.327 | 0.174 | 0.623 | 0.628 | 0.444 | 0.253 | 0.239 | 0.42 | 0.427 | 0.405 | 0.286 | 0.203 | 0.591 | 0.531 | 0.289 | 0.315 | 0.172
NCI-H3122 | 0.9 | 0.981 | 0.551 | 0.384 | 0.191 | 0.741 | 0.747 | 0.472 | 0.295 | 0.211 | 0.184 | 0.189 | 0.194 | 0.186 | 0.143 | 0.627 | 0.717 | 0.41 | 0.261 | 0.222
CAL-12T | 0.995 | 0.821 | 0.231 | 0.231 | 0.212 | 1.19 | 0.382 | 0.217 | 0.249 | 0.183 | 1.14 | 1.15 | 0.242 | 0.235 | 0.176 | 0.66 | 0.534 | 0.194 | 0.159 | 0.195
HCC-78 | 0.548 | 0.438 | 0.329 | 0.238 | 0.275 | 0.319 | 0.254 | 0.162 | 0.133 | 0.142 | 0.889 | 0.909 | 0.895 | 0.959 | 0.926 | 0.772 | 0.503 | 0.23 | 0.292 | 0.218
NCI-H2085 | 1.03 | 0.812 | 0.309 | 0.259 | 0.228 | 0.892 | 0.91 | 0.465 | 0.352 | 0.314 | 0.638 | 0.896 | 0.837 | 0.27 | 0.294 | 0.74 | 0.723 | 0.4 | 0.335 | 0.35
